The source of these data is patent US12528802B2, “Heterocyclic compound” (Takeda Pharmaceutical Company Limited, priority 2019, dated 2026).

Structures are written as SMILES.

This assay concerns the target T1, glucosylceramide synthase (Homo sapiens, UniProt Q16739).
T1 construct: made in house; host or cells: Expi293F cells (transient expression, pcDNA3.3-TOPO vector); microsome fraction used as enzyme source
T1 sequence (Q16739 1-394): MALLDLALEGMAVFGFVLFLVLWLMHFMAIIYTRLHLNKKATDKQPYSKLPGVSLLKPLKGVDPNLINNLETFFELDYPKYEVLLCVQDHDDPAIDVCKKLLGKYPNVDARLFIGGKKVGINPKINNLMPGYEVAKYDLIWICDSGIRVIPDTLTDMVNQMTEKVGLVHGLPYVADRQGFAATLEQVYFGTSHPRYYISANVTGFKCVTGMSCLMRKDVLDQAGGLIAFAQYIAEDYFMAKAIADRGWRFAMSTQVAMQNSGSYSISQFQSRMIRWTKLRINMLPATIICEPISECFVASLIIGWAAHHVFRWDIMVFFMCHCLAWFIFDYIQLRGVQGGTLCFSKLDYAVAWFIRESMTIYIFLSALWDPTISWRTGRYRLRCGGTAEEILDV
Briefly: Glucosylceramide synthase (GCS) enzyme assay, microsome fraction, C8 glucosylceramide quantified by Rapidfire MS/MS. The format is biochemical. The conditions noted are these: test compound 10 μM, 1.7 μM UDP-glucose, 3 μM C8 ceramide, room temperature 60 min; for inhibition at 10 µM: read-out: GCS enzyme inhibitory rate at 10 μM (%) (% of control). The gist of the method:
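Test compound, 10 μM final, was run against human GCS from transfected Expi293F microsome fractions, using substrate solution of 6 μM C8 ceramide (in DOPC liposomes) plus 3.4 μM UDP-glucose, pH 7.5 Tris buffer, 60 min, room temperature. Product C8 glucosylceramide measured by Rapidfire MS/MS against an internal standard, % inhibition referenced to no-enzyme and DMSO wells.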

With `O=C(c1ccc(-c2nccc3c2CN(c2ccc(F)cc2)C3=O)c(OC(F)F)c1)N1CCC1` [Example 78, 4-[4-(azetidine-1-carbonyl)-2-(difluoromethoxy)phenyl]-2-(4-fluorophenyl)-2,3-dihydro-1H-pyrrolo[3,4-c]pyridin-1-one], the inhibition at 10 µM is 79%.

In the case of `CN(C)C(=O)c1ccc(N2Cc3c(ccnc3-c3ccccc3OCC(F)(F)F)C2=O)cc1` [Example 162, N,N-dimethyl-4-{1-oxo-4-[2-(2,2,2-trifluoroethoxy)phenyl]-1,3-dihydro-2H-pyrrolo[3,4-c]pyridin-2-yl}benzamide], the inhibition at 10 µM is 95%.

On to `CN1CCN=C(c2ccc(F)cc2OCC(F)(F)F)C2=C1C(=O)N(c1ccc(OCC(F)(F)F)cc1)C2` [Example 179, 5-[4-fluoro-2-(2,2,2-trifluoroethoxy)phenyl]-1-methyl-7-[4-(2,2,2-trifluoroethoxy)phenyl]-2,3,6,7-tetrahydropyrrolo[3,4-e][1,4]diazepin-8(1H)-one], for which the inhibition at 10 µM came to 91%.

For `CN(C)C(=O)c1ccc(N2Cc3ccnc(-c4ccc(F)cc4OCC(F)(F)F)c3C2)cc1` [Example 141, 4-{4-[4-fluoro-2-(2,2,2-trifluoroethoxy)phenyl]-1,3-dihydro-2H-pyrrolo[3,4-c]pyridin-2-yl}-N,N-dimethylbenzamide], the inhibition at 10 µM came out at 90%.

Consider `CC(C)(O)c1ccc(N2Cc3c(cn(C4CC4)c(=O)c3-c3ccccc3OCC(F)(F)F)C2=O)cc1` [Example 371, 5-cyclopropyl-2-[4-(2-hydroxypropan-2-yl)phenyl]-7-[2-(2,2,2-trifluoroethoxy)phenyl]-1H-pyrrolo[3,4-c]pyridine-3,6(2H,5H)-dione], for which the inhibition at 10 µM was 100%.

As for `CC(C)(O)c1ccc(N2Cc3c(cc(Br)c(=O)n3-c3ccccc3OCC(F)(F)F)C2=O)cc1` [Example 336, 3-bromo-6-[4-(2-hydroxypropan-2-yl)phenyl]-1-[2-(2,2,2-trifluoroethoxy)phenyl]-6,7-dihydro-1H-pyrrolo[3,4-b]pyridine-2,5-dione], the inhibition at 10 µM was 98%.

As for `CC(C)(O)c1ccc(N2Cc3c(ccnc3-c3ccc(F)cc3OCC(F)F)C2=O)cc1F` [Example 274, 4-[2-(2,2-difluoroethoxy)-4-fluorophenyl]-2-[3-fluoro-4-(2-hydroxypropan-2-yl)phenyl]-2,3-dihydro-1H-pyrrolo[3,4-c]pyridin-1-one], the inhibition at 10 µM is 97%.

Regarding `O=C1c2ccnc(-c3ccc(F)cc3OCC(F)F)c2CN1c1ccc(F)cc1` [Example 16, 4-[2-(2,2-difluoroethoxy)-4-fluorophenyl]-2-(4-fluorophenyl)-2,3-dihydro-1H-pyrrolo[3,4-c]pyridin-1-one], the inhibition at 10 µM worked out at 73%.

In the case of `COc1ccccc1-c1nccc2c1CN(c1ccc(C)cc1)C2=O` [Example 23, 4-(2-methoxyphenyl)-2-(4-methylphenyl)-2,3-dihydro-1H-pyrrolo[3,4-c]pyridin-1-one], the inhibition at 10 µM is 99%.

In the case of `Cn1cc2c(c(-c3ccccc3OCC(F)(F)F)c1=O)CN(c1ccc(C(C)(C)O)cc1)C2=O` [Example 321, 2-[4-(2-hydroxypropan-2-yl)phenyl]-5-methyl-7-[2-(2,2,2-trifluoroethoxy)phenyl]-1H-pyrrolo[3,4-c]pyridine-3,6(2H,5H)-dione], the inhibition at 10 µM was 100%.

As to `COc1ccccc1-c1nccc2c1CN(c1ccc(OC(F)(F)F)cc1)C2=O` [Example 3, 4-(2-methoxyphenyl)-2-[4-(trifluoromethoxy)phenyl]-2,3-dihydro-1H-pyrrolo[3,4-c]pyridin-1-one], the inhibition at 10 µM was found to be 98%.

As to `COc1cnc(C)cc1-c1nccc2c1CN(c1ccc(F)cc1)C2=O` [Example 33, 2-(4-fluorophenyl)-4-(5-methoxy-2-methylpyridin-4-yl)-2,3-dihydro-1H-pyrrolo[3,4-c]pyridin-1-one], the inhibition at 10 µM stood at 68%.

Consider `N#Cc1ccc(N2Cc3ccnc(-c4ccc(F)cc4OCC(F)(F)F)c3C2)nc1` [Example 156, 6-{4-[4-fluoro-2-(2,2,2-trifluoroethoxy)phenyl]-1,3-dihydro-2H-pyrrolo[3,4-c]pyridin-2-yl}pyridine-3-carbonitrile], for which the inhibition at 10 µM is 94%.

In the case of `O=C(C1CC1)N1CC(O)(c2ccc(N3Cc4c(ccnc4-c4ccccc4OCC(F)(F)F)C3=O)cc2)C1` [Example 261, 2-{4-[1-(cyclopropanecarbonyl)-3-hydroxyazetidin-3-yl]phenyl}-4-[2-(2,2,2-trifluoroethoxy)phenyl]-2,3-dihydro-1H-pyrrolo[3,4-c]pyridin-1-one], the inhibition at 10 µM was determined as 93%.

With `O=C1c2ccnc(-c3ccc(F)cc3OCC(F)(F)F)c2CN1c1ccc(C2(O)CCOC2)cc1` (single isomer, unassigned) [Example 264, (R or S)-4-[4-fluoro-2-(2,2,2-trifluoroethoxy)phenyl]-2-[4-(3-hydroxyoxolan-3-yl)phenyl]-2,3-dihydro-1H-pyrrolo[3,4-c]pyridin-1-one], the “GCS enzyme inhibitory rate at 10 μM (%) (% of control)” value turned out to be 98%.

As to `O=C1c2cnn(-c3ccc(F)cc3OCC(F)(F)F)c2CN1c1ccc(F)cc1` [Example 79, 5-(4-fluorophenyl)-1-[4-fluoro-2-(2,2,2-trifluoroethoxy)phenyl]-5,6-dihydropyrrolo[3,4-c]pyrazol-4(1H)-one], the inhibition at 10 µM came to 75%.

As for `O=C1c2ccnc(-c3ccc(F)cc3OCC(F)(F)F)c2CN1c1ccc(C(O)C(F)(F)F)cc1` (single isomer, unassigned) [Example 286, (R or S)-4-[4-fluoro-2-(2,2,2-trifluoroethoxy)phenyl]-2-[4-(2,2,2-trifluoro-1-hydroxyethyl)phenyl]-2,3-dihydro-1H-pyrrolo [3,4-c]pyridin-1-one], the “GCS enzyme inhibitory rate at 10 μM (%) (% of control)” value stood at 96%.

On to `Cc1cc2c(c(-c3ccc(F)cc3OCC(F)(F)F)n1)CN(c1ccc(C3(O)CCOCC3)cc1)C2=O` [Example 352, 4-[4-fluoro-2-(2,2,2-trifluoroethoxy)phenyl]-2-[4-(4-hydroxyoxan-4-yl)phenyl]-6-methyl-2,3-dihydro-1H-pyrrolo[3,4-c] pyridin-1-one], for which the inhibition at 10 µM came to 100%.

For the compound `CC(C)(O)c1ccc(N2Cc3c(ccnc3-c3ccc(F)cc3OCC(F)(F)F)C2=O)cc1F` [Example 212, 2-[3-fluoro-4-(2-hydroxypropan-2-yl)phenyl]-4-[4-fluoro-2-(2,2,2-trifluoroethoxy)phenyl]-2,3-dihydro-1H-pyrrolo[3,4-c]pyridin-1-one], the inhibition at 10 µM was found to be 99%.

As for `O=C1c2ccnc(-c3ccc(F)cc3OCC(F)(F)F)c2CN1c1cnc(OC(F)F)cn1` [Example 100, 2-[5-(difluoromethoxy)pyrazin-2-yl]-4-[4-fluoro-2-(2,2,2-trifiuoroethoxy)phenyl]-2,3-dihydro-1H-pyrrolo[3,4-c]pyridin-1-one], the inhibition at 10 µM was 96%.

Regarding `CC(C)(O)COc1ccc(N2Cc3c(ccnc3-c3ccccc3OCC(F)F)C2=O)nc1` [Example 306, 4-[2-(2,2-difluoroethoxy)phenyl]-2-[5-(2-hydroxy-2-methylpropoxy)pyridin-2-yl]-2,3-dihydro-1H-pyrrolo [3,4-c]pyridin-1-one], the inhibition at 10 µM came to 99%.
